Measured values reported in ChEMBL document CHEMBL3727361, “Nitrogen bicyclic compounds as inhibitors for Scyl1 and Grk5” (2014).

tested on: not listed separately; assay: Effect on insulin release in mouse BetaTC6 cells assessed as ratio of insulin release incubated for 2 hrs in presence of low glucose media by ELISA relative to DMSO; format: cell-based; settings: beta-tc6, 2 h

Structure (SMILES) | Activity
COc1cc(-c2cnc3ccc(-c4cc(OC)c(OC)c(OC)c4)nn23)ccc1O | Non-toxic
Cn1cc(-c2ccc3ncc(-c4cccs4)n3n2)cn1 | Non-toxic

biological target: T1, N-terminal kinase-like protein (Mus musculus) (UniProt Q9EQC5); assay: Inhibition of Scyl1 in mouse BetaTC6 cells assessed as increase in insulin release at 2 to 10 uM incubated for 2 hrs in presence of high glucose media by ELISA; format: cell-based; settings: Beta-TC6
T1 sequence (whole entry): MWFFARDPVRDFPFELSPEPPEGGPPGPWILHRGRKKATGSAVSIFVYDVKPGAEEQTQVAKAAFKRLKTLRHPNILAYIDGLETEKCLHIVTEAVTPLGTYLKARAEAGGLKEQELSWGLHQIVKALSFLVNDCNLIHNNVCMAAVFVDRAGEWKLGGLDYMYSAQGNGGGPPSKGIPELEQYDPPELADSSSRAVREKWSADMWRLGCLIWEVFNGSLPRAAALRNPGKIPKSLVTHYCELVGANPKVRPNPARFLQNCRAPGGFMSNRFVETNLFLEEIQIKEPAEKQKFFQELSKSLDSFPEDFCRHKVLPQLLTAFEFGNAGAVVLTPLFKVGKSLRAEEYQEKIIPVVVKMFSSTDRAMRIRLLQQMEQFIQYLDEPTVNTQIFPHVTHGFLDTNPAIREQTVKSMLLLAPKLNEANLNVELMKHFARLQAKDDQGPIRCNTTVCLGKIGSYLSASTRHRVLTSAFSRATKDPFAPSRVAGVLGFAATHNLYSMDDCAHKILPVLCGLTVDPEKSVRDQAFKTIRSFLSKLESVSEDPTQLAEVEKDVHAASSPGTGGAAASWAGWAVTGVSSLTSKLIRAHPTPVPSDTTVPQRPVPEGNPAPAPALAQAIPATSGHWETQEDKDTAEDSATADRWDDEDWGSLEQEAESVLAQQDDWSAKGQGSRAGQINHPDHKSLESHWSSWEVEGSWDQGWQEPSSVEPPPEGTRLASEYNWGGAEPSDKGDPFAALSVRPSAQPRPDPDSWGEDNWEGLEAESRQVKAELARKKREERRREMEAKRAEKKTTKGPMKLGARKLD

Structure (SMILES) | inhibition
COc1cc(-c2cnc3ccc(-c4cc(OC)c(OC)c(OC)c4)nn23)ccc1O | Dose-dependent effect

tested on: Beta-TC6; assay: Increase in insulin release in mouse BetaTC6 cells assessed as relative insulin release activity at 10 uM incubated for 2 to 4 hrs by FRET based HTRF assay relative to sunitinib; format: functional; settings: not given

Structure (SMILES) | Activity
COc1cc(-c2cnc3ccc(-c4cc(OC)c(OC)c(OC)c4)nn23)ccc1O | 20%
COc1cc(-c2ccc3ncc(-c4cccc(C(=O)NCCN(C)C)c4)n3n2)ccc1O | 10%
Cn1cc(-c2ccc3ncc(-c4cccs4)n3n2)cn1 | 20%
Fc1ccc(-c2cnc3cnc(-c4ccco4)cn23)cc1Cl | 20%
Oc1cccc(-c2nnc3ccc(-c4ccc(F)cc4)cn23)c1 | 50%
CCOc1cccc(-c2cnc3cccnn23)c1 | 10%
OCc1ccc(-c2cnc3cnc(-c4ccco4)cn23)cc1 | 20%
CC(C(=O)Nc1cnc2cnc(-c3cccc([N+](=O)[O-])c3)cn12)c1ccccc1 (stereo unspecified) | 20%
CN(C)c1cccc(-c2ccc3ncc(-c4cccs4)n3n2)c1 | 20%
O=C(NCCO)c1ccc(-c2cn3c(-c4ccsc4)cnc3cn2)cc1 | 10%
CC(=O)c1cccc(-c2cnc3cnc(-c4cccc(F)c4)cn23)c1 | 20%
COc1ccc(-c2cnc3cnc(-c4ccc(N5CCN(C)CC5)cc4)cn23)cn1 | 20%
CCCNc1ccc2ncc(-c3cccc(/C=C/C(=O)O)c3)n2n1 | 10%
NC(=O)c1ccc(-c2ccc3ncc(-c4ccccc4)n3n2)cc1 | 20%
COc1cc(OC)cc(-c2cn3c(-c4cccc(N(C)C)c4)cnc3cn2)c1 | 20%
CSc1ccc(-c2cn3c(-c4cccnc4)cnc3cn2)cc1 | 20%
Fc1ccc(-c2cn3c(-c4ccsc4)cnc3cn2)cc1Cl | 20%
O=C(NC1CC1)c1ccc(-c2cn3c(-c4ccccc4)cnc3cn2)cc1 | 20%
CC(=O)Nc1ccc(-c2cnc3ccc(-c4ccc(N5CCOCC5)cc4)nn23)cc1 | >=100%
Fc1cccc(-c2cnc3cnc(-c4ccc(N5CCNCC5)cc4)cn23)c1 | 10%
CN(C)CCCNC(=O)c1ccc(-c2cn3c(-c4ccc(N(C)C)cc4)cnc3cn2)cc1 | 50%
NC(=O)c1ccc(-c2cnc3ccc(Cc4ccc(F)c(F)c4)nn23)cc1 | 20%

Structure (SMILES) | Activity
c1ccc(-c2cnc3cnc(-c4cccs4)cn23)cc1 | 20%
COc1ccc(-c2nnc3ccc(-c4cccc(N(C)C)c4)cn23)cc1OC | 50%
CN1CCN(C(=O)c2ccc(-c3cnc4cnc(/C=C/c5ccccc5)cn34)cc2)CC1 | 10%
OCc1ccc(-c2cn3c(-c4cccs4)cnc3cn2)cc1 | 20%
CN(C)c1ccc(-c2cnc3cnc(-c4ccccc4Cl)cn23)cc1 | 20%
CC(C)c1cccc(-c2ccc3nnc(-c4cccnc4)n3c2)c1 | 50%
COc1cc(-c2ccc3ncc(-c4cccs4)n3n2)ccc1O | 20%
OCc1ccc(-c2ccc3ncc(-c4cccnc4)n3n2)cc1 | 20%
COc1ccc(-c2cnc3cnc(-c4ccc(CO)cc4)cn23)cc1 | 50%
COc1ccc(-c2cnc3ccc(N[C@H](CO)C(C)C)nn23)c(OC)c1 | 20%
CN(C)c1ccc(-c2cnc3cnc(-c4ccccc4N(C)C)cn23)cc1 | 20%
FC(F)(F)c1cccc(-c2cnc3ccc(C4CC4)nn23)c1 | 10%
c1cnn2c(-c3ccc4c(c3)CCO4)cnc2c1 | 10%
CC(=O)Nc1cccc(-c2ccc3nnc(-c4ccc5nccnc5c4)n3c2)c1 | 50%
Nc1ccc(-c2cnc3ccc(Cc4ccccc4)nn23)cn1 | 20%
c1cc(-c2cn3c(-c4ccc5c(c4)OCO5)cnc3cn2)cs1 | 50%
c1cncc(-c2cnc3cnc(-c4cc5ccccc5s4)cn23)c1 | 20%
COc1ccc(CNc2ccc3ncc(-c4ccc(O)cc4)n3n2)cc1 | 20%
COc1ccc(-c2nnc3ccc(-c4ccc(S(C)(=O)=O)cc4)cn23)cc1OC | 10%
Cn1cncc1C#Cc1ccc2nnc(-c3ccc4c(c3)OCO4)n2c1 | 20%
O=C(NC1CCCC1)c1ccc(-c2cn3c(-c4ccc(CO)cc4)cnc3cn2)cc1 | 20%
COc1cc(-c2cnc3cnc(-c4ccc(NCCN5CCOCC5)nc4)cn23)ccc1O | 20%

Structure (SMILES) | Activity
OCc1ccc(-c2cn3c(-c4cccc(Cl)c4)cnc3cn2)cc1 | 20%
CN(C)CCCOc1ccc(-c2cn3c(-c4ccc(N(C)C)cc4)cnc3cn2)cn1 | 50%
CC(=O)Nc1cccc(-c2cnc3ccc(-c4cccnc4)nn23)c1 | 10%
O=C(NC1CC1)c1ccc(-c2cnc3cccnn23)cc1 | 10%
Nc1ccc(-c2cn3c(-c4cccs4)cnc3cn2)cn1 | 20%
OCc1ccc(-c2cnc3ccc(-c4cncnc4)nn23)cc1 | 10%
Cc1ccccc1-c1cn2c(-c3ccc(CCC(=O)O)cc3)cnc2cn1 | 20%
CNC(=O)c1cccc(-c2ccc3nnc(-c4ccc5c(c4)OCO5)n3c2)c1 | 20%
CNc1ccc2ncc(-c3cccc(C(=O)N(C)C)c3)n2n1 | 20%
FC(F)(F)Oc1cccc(-c2nnc3ccc(-c4cccs4)cn23)c1 | 50%
COc1ccc(-c2nnc3ccc(C#Cc4ccncc4)cn23)cc1OC | 50%
COc1ccc(-c2ccc3nnc(-c4ccc(OCCCN(C)C)cc4)n3c2)cc1OC | 50%
OC1CCC(Nc2ccc3ncc(Br)n3n2)CC1 (stereo unspecified) | 10%
Oc1cccc(-c2cnc3cnc(-c4cc5ccccc5s4)cn23)c1 | 50%
CC(C)N1CCN(c2ccc(-c3cn4c(-c5ccc(O)cc5)cnc4cn3)cc2)CC1 | 20%
COc1cc(-c2cnc3cnc(-c4ccc(OCCCN(C)C)nc4)cn23)ccc1O | 20%
OCc1cccc(-c2cnc3ccc(-c4cccc(Oc5ccccc5)c4)nn23)c1 | 20%
CS(=O)(=O)Nc1cccc(-c2ccc3ncc(-c4ccncc4)n3n2)c1 | 20%
CC(=O)Nc1ccc(-c2cnc3ccc(-c4ccc(S(C)(=O)=O)cc4)nn23)cc1 | 10%
NC(=O)c1ccc(-c2cnc3ccc(Cc4ccc(F)cc4)nn23)cc1 | 20%
COc1cc(-c2cnc3ccc(NCc4cccc(Cl)c4)nn23)ccc1O | 20%
CN(C)c1ccc(-c2cnc3cnc(-c4ccc(O)cc4)cn23)cc1 | 50%

Structure (SMILES) | Activity
c1ccc(Oc2ccccc2-c2cn3c(-c4ccncc4)cnc3cn2)cc1 | 20%
COc1ccc(CNc2ccc3ncc(-c4ccc5[nH]ccc5c4)n3n2)cc1 | 20%
COc1ccc(-c2ccc3ncc(-c4cccc(Cl)c4)n3n2)cc1OC | 20%
O=C(O)CCc1ccc(-c2cnc3cnc(-c4ccccc4Cl)cn23)cc1 | 50%
Clc1cccc(-c2cn3c(-c4cccs4)cnc3cn2)c1 | 20%
CN1CCN(c2ccc(-c3cn4c(-c5ccc(C(=O)N(C)C)cc5)cnc4cn3)cn2)CC1 | 20%
COc1cccc(-c2ccc3ncc(-c4cccc(Cl)c4)n3n2)c1 | 10%
COc1ccc(-c2cnc3ccc(NCC4CC4)nn23)cn1 | 10%
Cc1ccccc1-c1cnc2cnc(-c3cccc(F)c3)cn12 | 10%
COc1ccc(-c2cnc3ccc(NCc4ccccn4)nn23)cc1OC | 20%
c1cnc2cc(-c3nnc4ccc(-c5ccoc5)cn34)ccc2n1 | 50%
COc1ccc(-c2nnc3ccc(-c4cccs4)cn23)cc1OC | 50%
O=C(O)CCc1ccc(-c2cnc3cnc(-c4ccccc4CO)cn23)cc1 | 20%
CS(=O)(=O)c1ccc(-c2cnc3ccc(Cc4ccccc4)nn23)cc1 | 10%
CC(C)[C@@H](CO)Nc1ccc2ncc(-c3ccc(N)cc3)n2n1 | 50%
COc1cccc(-c2ccc3nnc(-c4cscn4)n3c2)c1 | 50%
CN(C)c1ccc(-c2cnc3cnc(-c4cccc(C(N)=O)c4)cn23)cc1 | 20%
Clc1ccccc1-c1ccc2nnc(-c3cscn3)n2c1 | 50%
Cc1ccc(CNc2ccc3ncc(-c4ccc(C(=O)NCCN(C)C)cc4)n3n2)c(C)c1 | 20%
NC(=O)c1ccc(-c2cnc3ccc(Cc4ccccc4)nn23)cc1 | 20%
CC(=O)c1cccc(-c2cnc3cnc(-c4ccc(C(=O)NCCN(C)C)cc4)cn23)c1 | 20%
CN(C)CC#Cc1ccc2nnc(-c3ccccc3)n2c1 | 10%

tested on: C2C12; assay: Cytotoxic activity against mouse C2C12 cells assessed as inhibition of cell proliferation of at 2 to 10 uM incubated for 72 hrs by MTT assay; format: cell-based; settings: c2c12, 72 h

Structure (SMILES) | Activity
COc1cc(-c2cnc3ccc(-c4cc(OC)c(OC)c(OC)c4)nn23)ccc1O | Toxic
COc1cc(-c2ccc3ncc(-c4cccc(C(=O)NCCN(C)C)c4)n3n2)ccc1O | Toxic
Cn1cc(-c2ccc3ncc(-c4cccs4)n3n2)cn1 | Toxic
NC(=O)c1ccc(-c2cnc3ccc(Cc4ccc(F)cc4)nn23)cc1 | Toxic
NC(=O)c1ccc(-c2cnc3ccc(Cc4ccccc4)nn23)cc1 | Toxic
